What follows are compounds tested against T1, human factor Xa (Homo sapiens, UniProt P00742) (assay: Factor Xa assay (chromogenic, purified enzyme)). Settings: inhibition constant for factor Xa; chromogenic substrate S-2765 140 μM, enzyme 0.5 nM, 25° C., pH 7.8; Ki calculated from IC50 (Ki=IC50/{1+(substrate concentration/Km)}); read-out: Ki(FXa).
T1 construct: 25 μl human factor Xa (Enzyme Research Laboratories, Inc; South Bend, Ind.) in TBS-PEG; purchased Enzyme Research Laboratories, Inc; South Bend, Ind
Type: biochemical
Description: The ability of the compounds of the formula I to inhibit factor Xa or factor VIIa or other enzymes like thrombin, plasmin, or trypsin can be assessed by determining the concentration of the compound of the formula I that inhibits enzyme activity by 50%, i. e. the IC50 value, which was related to the inhibition constant Ki. Purified enzymes were used in chromogenic assays. The concentration of inhibitor that causes a 50% decrease in the rate of substrate hydrolysis was determined by linear regression after plotting the relative rates of hydrolysis (compared to the uninhibited control) versus the log of the concentration of the compound of formula I. For calculating the inhibition constant Ki, the IC50 value was corrected for competition with substrate using the formula Ki=IC50/{1+(substrate concentration/Km)} wherein Km is the Michaelis-Menten constant (Chen and Prusoff, Biochem. Pharmacol. 22 (1973), 3099-3108; I. H. Segal, Enzyme Kinetics, 1975, John Wiley & Sons, New York, 100-125; which were incorporated herein by reference). a) Factor Xa Assay
In the assay for determining the inhibition of factor Xa activity TBS-PEG buffer (50 mM Tris-HCl, pH 7.8, 200 mM NaCl, 0.05% (w/v) PEG-8000, 0.02% (w/v) NaN3) was used. The IC50 was determined by combining in appropriate wells of a Costar half-area microtiter plate 25 μl human factor Xa (Enzyme Research Laboratories, Inc.; South Bend, Ind.) in TBS-PEG; 40 μl 10% (v/v) DMSO in TBS-PEG (uninhibited control) or various concentrations of the compound to be tested diluted in 10% (v/v) DMSO in TBS-PEG; and substrate S-2765 (N(α)-benzyloxycarbonyl-D-Arg-Gly-L-Arg-p-nitroanilide; Kabi Pharmacia, Inc.; Franklin, Ohio) in TBS-PEG.
The assay was performed by pre-incubating the compound of formula I plus enzyme for 10 min. Then the assay was initiated by adding substrate to obtain a final volume of 100 μl. The initial velocity of chromogenic substrate hydrolysis was measured by the change in absorbance at 405 nm using a Bio-tek Instruments kinetic plate reader (Ceres UV900HDi) at 25° C. during the linear portion of the time course (usually 1.5 min after addition of substrate). The enzyme concentration was 0.5 nM and substrate concentration was 140 μM.

T1 sequence (P00742 235-488 limits assumed): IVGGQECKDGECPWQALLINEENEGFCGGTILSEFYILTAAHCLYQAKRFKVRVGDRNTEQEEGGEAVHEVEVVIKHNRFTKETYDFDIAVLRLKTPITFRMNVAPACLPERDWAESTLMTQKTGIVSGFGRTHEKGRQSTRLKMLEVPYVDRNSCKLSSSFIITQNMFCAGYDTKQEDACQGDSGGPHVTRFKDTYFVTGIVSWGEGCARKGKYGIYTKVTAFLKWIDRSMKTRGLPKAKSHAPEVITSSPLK
T1 sequence (P00742 41-179 partner limits assumed): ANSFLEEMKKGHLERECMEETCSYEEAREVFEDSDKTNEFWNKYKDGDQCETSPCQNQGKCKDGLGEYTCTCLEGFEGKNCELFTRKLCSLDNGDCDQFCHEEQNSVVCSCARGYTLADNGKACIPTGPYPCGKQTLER

Ki	Compound
0.046 µM	CC(C)N1CCC(NC(=O)c2nc(C(N)=O)cn2Cc2cc(-c3ccc(Cl)s3)on2)CC1 [Example 41, 1-[5-(5-Chloro-thiophen-2-yl)-isoxazol-3-ylmethyl]-1H-imidazole-2,4-dicarboxylic acid 4-amide 2-[(1-isopropyl-piperidin-4-yl)-amide]]
0.126 µM	CC(C)N1CCC(NC(=O)c2nc(C(=O)N(C)CCO)cn2Cc2cc(-c3ccc(Cl)s3)on2)CC1 [Example 42]
0.062 µM	CC(C)N1CCC(NC(=O)c2nc(C(=O)N3CC(O)C3)cn2Cc2cc(-c3ccc(Cl)s3)on2)CC1 [Example 43, 1-[5-(5-Chloro-thiophen-2-yl)-isoxazol-3-ylmethyl]-4-(3-hydroxy-azetidine-1-carbonyl)-1H-imidazole-2-carboxylic acid (1-isopropyl-piperidin-4-yl)-amide]
0.136 µM	CC(C)N1CCC(NC(=O)c2nc(C(=O)N(C)C)cn2Cc2cc(-c3ccc(Cl)s3)on2)CC1 [Example 44, 1-[5-(5-Chloro-thiophen-2-yl)-isoxazol-3-ylmethyl]-1H-imidazole-2,4-dicarboxylic acid 4-dimethylamide 2-[(1-isopropyl-piperidin-4-yl)-amide]]
0.057 µM	CC(C)N1CCC(NC(=O)c2nc(C(=O)OCC3CC3)cn2Cc2cc(-c3ccc(Cl)s3)on2)CC1 [Example 45, 1-[5-(5-Chloro-thiophen-2-yl)-isoxazol-3-ylmethyl]-2-(1-isopropyl-piperidin-4-ylcarbamoyl)-1H-imidazole-4-carboxylic acid cyclopropylmethyl ester]
0.077 µM	CC(C)N1CCC(NC(=O)c2nc(C(=O)NCCO)cn2Cc2cc(-c3ccc(Cl)s3)on2)CC1 [Example 47]
0.091 µM	COC1CN(C(=O)c2cn(Cc3cc(-c4ccc(Cl)s4)on3)c(C(=O)NC3CCN(C(C)C)CC3)n2)C1 [Example 48, 1-[5-(5-Chloro-thiophen-2-yl)-isoxazol-3-ylmethyl]-4-(3-methoxy-azetidine-1-carbonyl)-1H-imidazole-2-carboxylic acid (1-isopropyl-piperidin-4-yl)-amide]
0.037 µM	COC(=O)CCc1cn(Cc2cc(-c3ccc(Cl)s3)on2)c(C(=O)NC2CCN(C(C)C)CC2)n1 [Example 49, 3-[1-[5-(5-Chloro-thiophen-2-yl)-isoxazol-3-ylmethyl]-2-(1-isopropyl-piperidin-4-ylcarbamoyl)-1H-imidazol-4-yl]-propionic acid methyl ester]
0.049 µM	CC(C)N1CCC(NC(=O)c2nccn2Cc2cc(-c3ccc(Cl)s3)on2)CC1 [Example 60, 1-[5-(5-Chloro-thiophen-2-yl)-isoxazol-3-ylmethyl]-1H-imidazole-2-carboxylic acid (1-isopropyl-piperidin-4-yl)-amide]
0.64 µM	O=C(NCC1CCN(c2ccncc2)CC1)c1nccn1Cc1cc(-c2ccc(Cl)s2)on1 [Example 63, 1-[5-(5-Chloro-thiophen-2-yl)-isoxazol-3-ylmethyl]-1H-imidazole-2-carboxylic acid (3,4,5,6-tetrahydro-2H-[1,4′]bipyridinyl-4-ylmethyl)-amide]
0.118 µM	O=C(NC1CCN(c2ccncc2)CC1)c1nccn1Cc1cc(-c2ccc(Cl)s2)on1 [Example 65, 1-[5-(5-Chloro-thiophen-2-yl)-isoxazol-3-ylmethyl]-1H-imidazole-2-carboxylic acid (3,4,5,6-tetrahydro-2H-[1,4′]bipyridinyl-4-yl)-amide]
0.051 µM	CC(C)N1CCC(NC(=O)c2cnc(C(=O)N3CCCOCC3)n2Cc2cc(-c3ccc(Cl)s3)on2)CC1 [Example 71, 3-[5-(5-Chloro-thiophen-2-yl)-isoxazol-3-ylmethyl]-2-(perhydro-1,4-oxazepine-4-carbonyl)-3H-imidazole-4-carboxylic acid (1-isopropyl-piperidin-4-yl)-amide]

Compound	Ki
CC(C)N1CCC(NC(=O)c2nc(C(=O)OCC(=O)OC(C)(C)C)cn2Cc2cc(-c3ccc(Cl)s3)on2)CC1 [Example 46, 1-[5-(5-Chloro-thiophen-2-yl)-isoxazol-3-ylmethyl]-2-(1-isopropyl-piperidin-4-ylcarbamoyl)-1H-imidazole-4-carboxylic acid tert-butoxycarbonylmethyl ester]	0.128 µM
